How the values were obtained:
Assay in all cases: Protein kinase inhibition assay
Assay type in all cases: biochemical
PKBα(h) = PKBα(h) (Homo sapiens, UniProt P31749); settings: read-out: percent residual activity of PKBα(h)
Method: (§1) Certain compounds were tested for activity in protein kinase inhibition assays. All substrates were dissolved and diluted to working stocks in de-ionized water, apart from histone H1 (10× working stock in 20 mM MOPS pH 7.0), PDKtide (10× working stock in 50 mM Tris pH 7.0) ATF2 (which is typically stored at a 20× working stock in 50 mM Tris pH 7.5, 150 mM NaCl, 0.1 mM EGTA, 0.03% Brij-35, 50% glycerol, 1 mM benzamidine, 0.2 mM PMSF and 0.1% R-mercaptoethanol), KKLNRTLSFAEPG (SEQ ID NO:203) and RRRLSFAEPG (SEQ ID NO:204) (50 mM HEPES pH 7.4) and GGEEEEYFELVKKKK (SEQ ID NO:205) (20 mM MOPS pH 7.0). All kinases were pre-diluted to a 10× working concentration prior to addition into the assay. The composition of the dilution buffer for each kinase is detailed below.
(§2) In a final reaction volume of 25 μl, PKBα (h) (5-10 mU) is incubated with 8 mM MOPS pH 7.0, 0.2 mM EDTA, 30 μM GRPRTSSFAEGKK (SEQ ID NO:232), 10 mM MgAcetate and [gamma-33P-ATP] (specific activity approx. 500 cpm/pmol, concentration as required). The reaction is initiated by the addition of the MgATP mix. After incubation for 40 minutes at room temperature, the reaction is stopped by the addition of 5 μl of a 3% phosphoric acid solution. 10 μl of the reaction is then spotted onto a P30 filtermat and washed three times for 5 minutes in 75 mM phosphoric acid and once in methanol prior to drying and scintillation counting.

PKCα(h) = PKCα(h) (Homo sapiens, UniProt P17252); settings: read-out: percent residual activity of PKCα(h)
Method: as §1
In a final reaction volume of 25 μl, PKCα (h) (5-10 mU) is incubated with 20 mM HEPES pH 7.4, 0.03% Triton X-100, […], 0.1 mg/ml phosphatidylserine, 10 μg/ml diacylglycerol, 0.1 mg/ml histone H1, 10 mM MgAcetate and [gamma-33P-ATP] (specific activity approx. 500 cpm/pmol, concentration as required). The reaction is initiated by the addition of the MgATP mix. After incubation for 40 minutes at room temperature, the reaction is stopped by the addition of 5 μl of a 3% phosphoric acid solution. […]

Rsk2(h) = Rsk2(h) (Homo sapiens, UniProt P51812); settings: read-out: percent residual activity of Rsk2(h)
Sequence of Rsk2(h) (P51812 whole entry): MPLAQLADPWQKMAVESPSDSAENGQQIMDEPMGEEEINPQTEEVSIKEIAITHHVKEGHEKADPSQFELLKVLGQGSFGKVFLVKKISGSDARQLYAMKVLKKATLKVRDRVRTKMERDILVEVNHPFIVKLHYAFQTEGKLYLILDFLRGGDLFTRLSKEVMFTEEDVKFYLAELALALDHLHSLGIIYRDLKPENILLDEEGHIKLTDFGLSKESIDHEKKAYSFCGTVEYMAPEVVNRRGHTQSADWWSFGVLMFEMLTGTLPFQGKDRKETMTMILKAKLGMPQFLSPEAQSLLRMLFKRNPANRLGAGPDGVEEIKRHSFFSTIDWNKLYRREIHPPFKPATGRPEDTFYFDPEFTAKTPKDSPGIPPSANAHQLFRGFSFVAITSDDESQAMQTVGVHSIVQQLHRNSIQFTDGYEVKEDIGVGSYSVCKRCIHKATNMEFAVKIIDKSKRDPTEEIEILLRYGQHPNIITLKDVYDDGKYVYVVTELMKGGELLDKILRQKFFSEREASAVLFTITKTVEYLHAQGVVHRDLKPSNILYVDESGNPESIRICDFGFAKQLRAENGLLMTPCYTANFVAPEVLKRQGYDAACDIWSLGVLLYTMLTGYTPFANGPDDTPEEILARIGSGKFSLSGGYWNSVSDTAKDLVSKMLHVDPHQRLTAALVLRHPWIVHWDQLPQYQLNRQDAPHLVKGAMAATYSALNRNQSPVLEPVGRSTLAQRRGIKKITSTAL
Method: as §1
as §2, with “Rsk2” for “PKBα”, “KKKNRTLSVA” for “GRPRTSSFAEGKK”, “NO:212),” for “NO:232),”

FGFR2(h) = FGFR2(h) (Homo sapiens, UniProt P21802); settings: read-out: percent residual activity of FGFR2(h)
Sequence of FGFR2(h) (P21802 22-821): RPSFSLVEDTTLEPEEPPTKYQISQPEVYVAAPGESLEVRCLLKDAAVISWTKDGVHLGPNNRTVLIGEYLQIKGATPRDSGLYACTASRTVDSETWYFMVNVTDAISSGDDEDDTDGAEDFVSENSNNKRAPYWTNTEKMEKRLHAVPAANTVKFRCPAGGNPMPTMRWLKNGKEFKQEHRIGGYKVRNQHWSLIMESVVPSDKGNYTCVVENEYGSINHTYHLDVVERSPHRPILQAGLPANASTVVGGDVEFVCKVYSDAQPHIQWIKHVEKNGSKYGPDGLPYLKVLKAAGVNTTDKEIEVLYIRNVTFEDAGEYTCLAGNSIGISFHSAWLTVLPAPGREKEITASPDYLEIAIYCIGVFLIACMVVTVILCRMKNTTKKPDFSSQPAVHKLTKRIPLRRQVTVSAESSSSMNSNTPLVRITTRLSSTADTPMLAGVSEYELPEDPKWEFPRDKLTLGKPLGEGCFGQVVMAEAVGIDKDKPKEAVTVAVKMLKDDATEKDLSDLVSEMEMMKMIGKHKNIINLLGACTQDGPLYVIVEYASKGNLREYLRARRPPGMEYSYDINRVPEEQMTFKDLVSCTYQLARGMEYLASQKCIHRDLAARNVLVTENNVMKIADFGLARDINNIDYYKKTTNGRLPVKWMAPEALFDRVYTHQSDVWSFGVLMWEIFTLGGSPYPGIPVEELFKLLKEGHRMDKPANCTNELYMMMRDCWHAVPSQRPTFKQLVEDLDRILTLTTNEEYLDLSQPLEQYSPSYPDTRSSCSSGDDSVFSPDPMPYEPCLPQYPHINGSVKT
Method: as §1
as §2, with “FGFR2” for “PKBα”, “2.5 mM MnCl2, 0.1 mg/ml poly(Glu, Tyr) 4:1,” for “30 μM GRPRTSSFAEGKK (SEQ ID NO:232),”, “Filtermat A” for “P30 filtermat”

Fms(h) = Fms(h) (Homo sapiens, UniProt P07333); settings: read-out: percent residual activity of Fms(h)
Sequence of Fms(h) (P07333 20-972): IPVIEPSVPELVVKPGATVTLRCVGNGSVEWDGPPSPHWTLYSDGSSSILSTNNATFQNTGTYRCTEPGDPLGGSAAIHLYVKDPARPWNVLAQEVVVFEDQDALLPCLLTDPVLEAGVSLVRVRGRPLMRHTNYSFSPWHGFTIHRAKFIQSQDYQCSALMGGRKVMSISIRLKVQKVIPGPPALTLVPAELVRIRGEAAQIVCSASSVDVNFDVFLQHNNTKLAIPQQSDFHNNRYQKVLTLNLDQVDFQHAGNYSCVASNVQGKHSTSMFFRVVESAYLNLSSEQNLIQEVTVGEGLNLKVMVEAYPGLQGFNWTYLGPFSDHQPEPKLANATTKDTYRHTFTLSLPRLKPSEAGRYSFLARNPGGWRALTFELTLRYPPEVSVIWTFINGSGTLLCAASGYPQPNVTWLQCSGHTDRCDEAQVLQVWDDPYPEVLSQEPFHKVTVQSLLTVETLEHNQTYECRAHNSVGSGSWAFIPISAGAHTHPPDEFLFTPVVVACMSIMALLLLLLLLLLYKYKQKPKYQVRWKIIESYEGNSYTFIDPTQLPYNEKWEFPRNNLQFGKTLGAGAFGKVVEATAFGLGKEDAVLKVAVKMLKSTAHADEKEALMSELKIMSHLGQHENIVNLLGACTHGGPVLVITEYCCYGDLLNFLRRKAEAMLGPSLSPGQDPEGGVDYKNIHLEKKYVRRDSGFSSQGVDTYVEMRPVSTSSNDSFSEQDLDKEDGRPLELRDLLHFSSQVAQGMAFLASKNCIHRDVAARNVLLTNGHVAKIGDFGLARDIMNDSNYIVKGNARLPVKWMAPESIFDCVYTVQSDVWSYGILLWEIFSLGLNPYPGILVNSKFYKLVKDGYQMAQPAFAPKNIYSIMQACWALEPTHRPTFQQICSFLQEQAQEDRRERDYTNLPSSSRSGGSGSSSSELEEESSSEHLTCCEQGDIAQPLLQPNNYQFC
Method: as §1
as §2, with “μl, Fms” for “μl, PKBα”, “EDTA, 250” for “EDTA, 30”, “μM KKKSPGEYVNIEFG” for “μM GRPRTSSFAEGKK”, “ID NO:207),” for “ID NO:232),”, “and [y-33P-ATP]” for “and [gamma-33P-ATP]”

MST1(h) = MST1(h) (Homo sapiens, UniProt Q13043); settings: read-out: percent residual activity of MST1(h)
Sequence of MST1(h) (Q13043 whole entry): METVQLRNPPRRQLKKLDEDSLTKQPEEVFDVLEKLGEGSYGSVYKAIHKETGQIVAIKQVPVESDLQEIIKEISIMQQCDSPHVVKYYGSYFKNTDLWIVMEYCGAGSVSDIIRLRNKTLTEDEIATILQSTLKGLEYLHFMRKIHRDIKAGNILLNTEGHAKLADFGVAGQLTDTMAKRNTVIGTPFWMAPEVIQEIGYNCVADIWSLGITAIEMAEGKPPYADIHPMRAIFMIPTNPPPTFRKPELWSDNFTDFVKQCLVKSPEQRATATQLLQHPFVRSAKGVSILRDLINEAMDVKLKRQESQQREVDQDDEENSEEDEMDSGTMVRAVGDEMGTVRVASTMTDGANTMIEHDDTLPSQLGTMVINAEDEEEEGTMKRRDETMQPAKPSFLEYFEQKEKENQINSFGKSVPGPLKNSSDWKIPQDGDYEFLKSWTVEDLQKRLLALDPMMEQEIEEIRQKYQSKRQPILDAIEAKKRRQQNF
Method: as §1
as §2, with “μl, MST1” for “μl, PKBα”, “EDTA, 250” for “EDTA, 30”, “μM KKSRGDYMTMQIG” for “μM GRPRTSSFAEGKK”, “ID NO:210),” for “ID NO:232),”

Sequence of PKBα(h) (P31749 whole entry): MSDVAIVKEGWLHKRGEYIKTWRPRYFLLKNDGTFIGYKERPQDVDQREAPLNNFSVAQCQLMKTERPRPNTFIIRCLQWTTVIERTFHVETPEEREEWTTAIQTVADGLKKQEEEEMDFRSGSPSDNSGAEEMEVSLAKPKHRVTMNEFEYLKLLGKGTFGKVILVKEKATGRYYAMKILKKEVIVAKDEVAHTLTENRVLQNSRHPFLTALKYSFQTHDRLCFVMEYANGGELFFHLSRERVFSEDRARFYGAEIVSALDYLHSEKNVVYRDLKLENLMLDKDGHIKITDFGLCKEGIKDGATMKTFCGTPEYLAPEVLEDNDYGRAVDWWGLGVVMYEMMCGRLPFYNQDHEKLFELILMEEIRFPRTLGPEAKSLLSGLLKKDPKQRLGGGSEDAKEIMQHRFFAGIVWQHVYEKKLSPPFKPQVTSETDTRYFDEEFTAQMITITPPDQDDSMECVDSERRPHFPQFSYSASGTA

remaining activity at 2.5 µM (PKBα(h)) [%] | remaining activity at 2.5 µM (PKCα(h)) [%] | remaining activity at 2.5 µM (Rsk2(h)) [%] | remaining activity at 2.5 µM (FGFR2(h)) [%] | remaining activity at 2.5 µM (Fms(h)) [%] | remaining activity at 2.5 µM (MST1(h)) [%] | SMILES
103 | 101 | 106 | 89 | 107 | 96 | CC(=O)N1CCN(c2ccc3c(=O)c(C(=O)NCCN4CCCC4)c4n(C)c5ccccc5n4c3n2)CC1 [Compound B-1]
91 | 90 | 60 | 76 | 131 | 76 | CN1CCCC1CCNC(=O)c1cn2c3c(c(N4CCC(c5cnccn5)C4)c(F)cc3c1=O)Oc1cc3ccccc3cc1-2 (stereo not drawn) [Compound A-1]
